{"source": "PubChem BioAssay AID1963971", "about": "(Molecular Pharmacology Branch, DTP, NCI, 2024);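 further: spheroids exposed to compounds for seven days before read-out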", "tested_on": "953936-095-R-J2-PDC spheroids with HUVEC/MSC, viability", "assay": "Anticancer human tumor 953936-095-R-J2-PDC patient-derived cervical squamous cell carcinoma cell line growth inhibition [PI3K]", "conditions": "for IC50: curve of first compound; for viability, T/C: stronger effect = lower value", "in_short": "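Agents were dosed from a top concentration near clinical Cmax (otherwise 10 microM) in half-log decrements, alone or combined with PI3K inhibitors. The spheroids contain tumor cells plus endothelial (HUVEC) and MSC stroma; viability is measured.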", "key": {"[1]": {"conditions": "second compound 0.0316 µM, first compound 0.0316 µM"}, "[2]": {"conditions": "second compound 0.0316 µM, first compound 0.1 µM"}, "[3]": {"conditions": "second compound 0.0316 µM, first compound 0.316 µM"}, "[4]": {"conditions": "second compound 0.0316 µM, first compound 1 µM"}, "[5]": {"conditions": "second compound 0.1 µM, first compound 0.0316 µM"}, "[6]": {"conditions": "second compound 0.1 µM, first compound 0.1 µM"}, "[7]": {"conditions": "second compound 0.1 µM, first compound 0.316 µM"}, "[8]": {"conditions": "second compound 0.1 µM, first compound 1 µM"}, "[9]": {"conditions": "second compound 0.316 µM, first compound 0.0316 µM"}, "[10]": {"conditions": "second compound 0.316 µM, first compound 0.1 µM"}, "[11]": {"conditions": "second compound 0.316 µM, first compound 0.316 µM"}, "[12]": {"conditions": "second compound 0.316 µM, first compound 1 µM"}, "[13]": {"conditions": "second compound 1 µM, first compound 0.0316 µM"}, "[14]": {"conditions": "second compound 1 µM, first compound 0.1 µM"}, "[15]": {"conditions": "second compound 1 µM, first compound 0.316 µM"}, "[16]": {"conditions": "second compound 1 µM, first compound 1 µM"}, "[17]": {"conditions": "second compound 3.16 µM, first compound 0.0316 µM"}, "[18]": {"conditions": "second compound 3.16 µM, first compound 0.1 µM"}, "[19]": {"conditions": "second compound 3.16 µM, first compound 0.316 µM"}, "[20]": {"conditions": "second compound 3.16 µM, first compound 1 µM"}, "[21]": {"conditions": "second compound 10 µM, first compound 0.0316 µM"}, "[22]": {"conditions": "second compound 10 µM, first compound 0.1 µM"}, "[23]": {"conditions": "second compound 10 µM, first compound 0.316 µM"}, "[24]": {"conditions": "second compound 10 µM, first compound 1 µM"}}}
{"smiles": "CC(C)NCC(C(=O)N1CCN(c2ncnc3c2C(C)CC3O)CC1)c1ccc(Cl)cc1", "note": "(centres undefined) + CC(Nc1ncnc2nc[nH]c12)c1cc2cccc(Cl)c2c(=O)n1-c1ccccc1", "values": [{"measurement": "IC50", "setting": "second compound 0.0316 µM", "result": 0.952, "unit": "µM"}, {"measurement": "IC50", "setting": "second compound 0.1 µM", "result": 1.01, "unit": "µM"}, {"measurement": "IC50", "setting": "second compound 0.316 µM", "result": 0.922, "unit": "µM"}, {"measurement": "IC50", "setting": "second compound 1 µM", "result": 1.05, "unit": "µM"}, {"measurement": "IC50", "setting": "second compound 3.16 µM", "result": 0.873, "unit": "µM"}, {"measurement": "IC50", "setting": "second compound 10 µM", "result": 0.393, "unit": "µM"}, {"measurement": "viability, T/C", "setting": "[1]", "result": 94.7, "unit": "%"}, {"measurement": "viability, T/C", "setting": "[2]", "result": 99.8, "unit": "%"}, {"measurement": "viability, T/C", "setting": "[3]", "result": 77.9, "unit": "%"}, {"measurement": "viability, T/C", "setting": "[4]", "result": 49.6, "unit": "%"}, {"measurement": "viability, T/C", "setting": "second compound 0.0316 µM, first compound 3.16 µM", "result": 22.6, "unit": "%"}, {"measurement": "viability, T/C", "setting": "second compound 0.0316 µM, first compound 10 µM", "result": 14.1, "unit": "%"}, {"measurement": "viability, T/C", "setting": "[5]", "result": 100, "unit": "%"}, {"measurement": "viability, T/C", "setting": "[6]", "result": 104, "unit": "%"}, {"measurement": "viability, T/C", "setting": "[7]", "result": 75.8, "unit": "%"}, {"measurement": "viability, T/C", "setting": "[8]", "result": 52.5, "unit": "%"}, {"measurement": "viability, T/C", "setting": "second compound 0.1 µM, first compound 3.16 µM", "result": 24.3, "unit": "%"}, {"measurement": "viability, T/C", "setting": "second compound 0.1 µM, first compound 10 µM", "result": 14.3, "unit": "%"}, {"measurement": "viability, T/C", "setting": "[9]", "result": 111, "unit": "%"}, {"measurement": "viability, T/C", "setting": "[10]", "result": 98.1, "unit": "%"}, {"measurement": "viability, T/C", "setting": "[11]", "result": 82, "unit": "%"}, {"measurement": "viability, T/C", "setting": "[12]", "result": 47.9, "unit": "%"}, {"measurement": "viability, T/C", "setting": "second compound 0.316 µM, first compound 3.16 µM", "result": 23.1, "unit": "%"}, {"measurement": "viability, T/C", "setting": "second compound 0.316 µM, first compound 10 µM", "result": 17.1, "unit": "%"}, {"measurement": "viability, T/C", "setting": "[13]", "result": 104, "unit": "%"}, {"measurement": "viability, T/C", "setting": "[14]", "result": 82.9, "unit": "%"}, {"measurement": "viability, T/C", "setting": "[15]", "result": 73.5, "unit": "%"}, {"measurement": "viability, T/C", "setting": "[16]", "result": 53.9, "unit": "%"}, {"measurement": "viability, T/C", "setting": "second compound 1 µM, first compound 3.16 µM", "result": 26.2, "unit": "%"}, {"measurement": "viability, T/C", "setting": "second compound 1 µM, first compound 10 µM", "result": 13.4, "unit": "%"}, {"measurement": "viability, T/C", "setting": "[17]", "result": 79.7, "unit": "%"}, {"measurement": "viability, T/C", "setting": "[18]", "result": 79.1, "unit": "%"}, {"measurement": "viability, T/C", "setting": "[19]", "result": 72.9, "unit": "%"}, {"measurement": "viability, T/C", "setting": "[20]", "result": 45.7, "unit": "%"}, {"measurement": "viability, T/C", "setting": "second compound 3.16 µM, first compound 3.16 µM", "result": 23.6, "unit": "%"}, {"measurement": "viability, T/C", "setting": "second compound 3.16 µM, first compound 10 µM", "result": 12.7, "unit": "%"}, {"measurement": "viability, T/C", "setting": "[21]", "result": 61.1, "unit": "%"}, {"measurement": "viability, T/C", "setting": "[22]", "result": 58.3, "unit": "%"}, {"measurement": "viability, T/C", "setting": "[23]", "result": 51.7, "unit": "%"}, {"measurement": "viability, T/C", "setting": "[24]", "result": 40, "unit": "%"}, {"measurement": "viability, T/C", "setting": "second compound 10 µM, first compound 3.16 µM", "result": 20.1, "unit": "%"}, {"measurement": "viability, T/C", "setting": "second compound 10 µM, first compound 10 µM", "result": 9.46, "unit": "%"}]}
{"smiles": "CCN1CCN(Cc2ccc(Nc3ncc(F)c(-c4cc(F)c5nc(C)n(C(C)C)c5c4)n3)nc2)CC1", "note": "+ CC(Nc1ncnc2nc[nH]c12)c1cc2cccc(Cl)c2c(=O)n1-c1ccccc1", "values": [{"measurement": "IC50", "setting": "second compound 0.0316 µM", "result": "> 1", "unit": "µM"}, {"measurement": "IC50", "setting": "second compound 0.1 µM", "result": "> 1", "unit": "µM"}, {"measurement": "IC50", "setting": "second compound 0.316 µM", "result": "> 1", "unit": "µM"}, {"measurement": "IC50", "setting": "second compound 1 µM", "result": "> 1", "unit": "µM"}, {"measurement": "IC50", "setting": "second compound 3.16 µM", "result": "> 1", "unit": "µM"}, {"measurement": "IC50", "setting": "second compound 10 µM", "result": "> 1", "unit": "µM"}, {"measurement": "viability, T/C", "setting": "second compound 0.0316 µM, first compound 0.00316 µM", "result": 102, "unit": "%"}, {"measurement": "viability, T/C", "setting": "second compound 0.0316 µM, first compound 0.01 µM", "result": 101, "unit": "%"}, {"measurement": "viability, T/C", "setting": "[1]", "result": 96.1, "unit": "%"}, {"measurement": "viability, T/C", "setting": "[2]", "result": 103, "unit": "%"}, {"measurement": "viability, T/C", "setting": "[3]", "result": 87.5, "unit": "%"}, {"measurement": "viability, T/C", "setting": "[4]", "result": 89.1, "unit": "%"}, {"measurement": "viability, T/C", "setting": "second compound 0.1 µM, first compound 0.00316 µM", "result": 104, "unit": "%"}, {"measurement": "viability, T/C", "setting": "second compound 0.1 µM, first compound 0.01 µM", "result": 106, "unit": "%"}, {"measurement": "viability, T/C", "setting": "[5]", "result": 111, "unit": "%"}, {"measurement": "viability, T/C", "setting": "[6]", "result": 93, "unit": "%"}, {"measurement": "viability, T/C", "setting": "[7]", "result": 86, "unit": "%"}, {"measurement": "viability, T/C", "setting": "[8]", "result": 81.3, "unit": "%"}, {"measurement": "viability, T/C", "setting": "second compound 0.316 µM, first compound 0.00316 µM", "result": 100, "unit": "%"}, {"measurement": "viability, T/C", "setting": "second compound 0.316 µM, first compound 0.01 µM", "result": 108, "unit": "%"}, {"measurement": "viability, T/C", "setting": "[9]", "result": 103, "unit": "%"}, {"measurement": "viability, T/C", "setting": "[10]", "result": 90.5, "unit": "%"}, {"measurement": "viability, T/C", "setting": "[11]", "result": 83.8, "unit": "%"}, {"measurement": "viability, T/C", "setting": "[12]", "result": 79.2, "unit": "%"}, {"measurement": "viability, T/C", "setting": "second compound 1 µM, first compound 0.00316 µM", "result": 97, "unit": "%"}, {"measurement": "viability, T/C", "setting": "second compound 1 µM, first compound 0.01 µM", "result": 97.7, "unit": "%"}, {"measurement": "viability, T/C", "setting": "[13]", "result": 104, "unit": "%"}, {"measurement": "viability, T/C", "setting": "[14]", "result": 82.9, "unit": "%"}, {"measurement": "viability, T/C", "setting": "[15]", "result": 76, "unit": "%"}, {"measurement": "viability, T/C", "setting": "[16]", "result": 74.2, "unit": "%"}, {"measurement": "viability, T/C", "setting": "second compound 3.16 µM, first compound 0.00316 µM", "result": 87.8, "unit": "%"}, {"measurement": "viability, T/C", "setting": "second compound 3.16 µM, first compound 0.01 µM", "result": 78.6, "unit": "%"}, {"measurement": "viability, T/C", "setting": "[17]", "result": 81.8, "unit": "%"}, {"measurement": "viability, T/C", "setting": "[18]", "result": 73.9, "unit": "%"}, {"measurement": "viability, T/C", "setting": "[19]", "result": 71.1, "unit": "%"}, {"measurement": "viability, T/C", "setting": "[20]", "result": 64, "unit": "%"}, {"measurement": "viability, T/C", "setting": "second compound 10 µM, first compound 0.00316 µM", "result": 59.6, "unit": "%"}, {"measurement": "viability, T/C", "setting": "second compound 10 µM, first compound 0.01 µM", "result": 57.2, "unit": "%"}, {"measurement": "viability, T/C", "setting": "[21]", "result": 57.2, "unit": "%"}, {"measurement": "viability, T/C", "setting": "[22]", "result": 62.1, "unit": "%"}, {"measurement": "viability, T/C", "setting": "[23]", "result": 52.8, "unit": "%"}, {"measurement": "viability, T/C", "setting": "[24]", "result": 49.8, "unit": "%"}]}
